Measurements: patent US7541141B2, “Method of using estrogen-related receptor alpha (ERRα) status to determine prognosis, treatment strategy and predisposition to breast cancer, and method of using ERRα as a therapeutic target for the treatment of breast cancer” (Wisconsin Alumni Research Foundation, priority 1997, dated 2009)

T1: ERRα1 (Homo sapiens, UniProt P11474)
T1 construct: expressed in transfected cells; host or cells: COS cells (whole-cell extract)
T1 sequence (P11474 1-423): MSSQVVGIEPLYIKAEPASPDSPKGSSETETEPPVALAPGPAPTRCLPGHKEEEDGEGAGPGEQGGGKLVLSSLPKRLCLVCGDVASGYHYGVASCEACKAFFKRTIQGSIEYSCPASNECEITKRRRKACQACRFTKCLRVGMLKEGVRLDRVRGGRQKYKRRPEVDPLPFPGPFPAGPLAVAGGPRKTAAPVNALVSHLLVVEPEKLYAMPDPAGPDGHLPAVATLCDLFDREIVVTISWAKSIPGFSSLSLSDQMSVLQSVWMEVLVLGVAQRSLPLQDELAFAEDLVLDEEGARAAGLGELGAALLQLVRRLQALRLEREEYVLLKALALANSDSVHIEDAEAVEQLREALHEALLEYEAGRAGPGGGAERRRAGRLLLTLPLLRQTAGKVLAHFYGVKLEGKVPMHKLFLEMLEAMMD

B1: ERRα11-173: carboxyl-terminal-deleted ERRα1 variant (residues 1-173) retaining A/B and DNA binding domains, lacking E/F domains (protein)
chain: MSSQVVGIEPLYIKAEPASPDSPKGSSETETEPPVALAPGPAPTRCLPGHKEEEDGEGAGPGEQGGGKLVLSSLPKRLCLVCGDVASGYHYGVASCEACKAFFKRTIQGSIEYSCPASNECEITKRRRKACQACRFTKCLRVGMLKEGVRLDRVRGGRQKYKRRPEVDPLPFP
B2: ERRα176-423: amino-terminal-deleted ERRα1 variant (residues 76-423) lacking the A/B domain (protein)
chain: MKRLCLVCGDVASGYHYGVASCEACKAFFKRTIQGSIEYSCPASNECEITKRRRKACQACRFTKCLRVGMLKEGVRLDRVRGGRQKYKRRPEVDPLPFPGPFPAGPLAVAGGPRKTAAPVNALVSHLLVVEPEKLYAMPDPAGPDGHLPAVATLCDLFDREIVVTISWAKSIPGFSSLSLSDQMSVLQSVWMEVLVLGVAQRSLPLQDELAFAEDLVLDEEGARAAGLGELGAALLQLVRRLQALRLEREEYVLLKALALANSDSVHIEDAEAVEQLREALHEALLEYEAGRAGPGGGAERRRAGRLLLTLPLLRQTAGKVLAHFYGVKLEGKVPMHKLFLEMLEAMMD

Each molecule was assayed on ERE-dependent transcription in MCF-7 cells (assay: p3xERE-TK-luc luciferase reporter, transient transfection). Settings: 0.12 or 0.25 μg expression plasmid, whole FBS, 48 h.
Type: cell-based, human
Experimental: Transient Transfections and Luciferase Assays: To assess the role ERRα plays in regulating transcription of an ERE-containing promoter, MCF-7 or HeLa cells grown in 12-well tissue culture plates were co-transfected in parallel with 0.5 μg of pTK-luc versus p3xERE-TK-luc along with the indicated amounts of the empty cloning vector pcDNA3.1, the ERRα1 expression plasmid pcDNA3.1-hERRα1, or mutant variants thereof. Transfections were performed with the aid of the TransIT LT1 transfection reagent (PanVera, Madison, Wis.) as previously described (35). To examine the effects of ER ligands, cells were maintained in stripped medium for 48 h before transfection and the addition of 17β-estradiol (E2) (Sigma) or the pure anti-estrogen ICI-182,780 (Astra Zeneca, London, UK) dissolved in ethanol and diluted in medium to obtain the indicated concentrations. Cells were harvested 48 h post-transfection, and lysates were assayed for luciferase activity normalized to protein concentration as previously described (36).
ERRα Represses Transcription in MCF-7 Cells: Because ERRα can interfere with the binding of ERα to this ERE, might it affect estrogen-responsive transcription? To answer this question, we co-transfected ERα-positive mammary MCF-7 cells in parallel with p3xERE-TK-luc, a reporter plasmid containing three tandem copies of this ERE (FIG. 14A) or the ERE-negative control plasmid, pTK-luc, together with 0.12 or 0.25 μg of the ERRα1 expression plasmid, pcDNA3.1-hERRα1, or the empty parental expression plasmid, pcDNA3.1. After incubation for 48 h in medium containing whole FBS, the cells were harvested and assayed for luciferase activity. The presence of the EREs conferred an about 150-fold increase in transcriptional activity above the level observed in the cells transfected with the ERE-negative reporter plasmid (FIG. 14B). […] Thus, ERRα inhibits the estrogen-responsive activation of transcription from this ERE-containing promoter in this ER-positive MCF-7 cell line.
ERRα Modulates Estrogen-responsiveness in MCF-7 Cells: To directly examine the effect of ERRα on the response to estrogen, MCF-7 cells were cultured in medium containing estrogen-free charcoal-stripped FBS and cotransfected as described above but in the absence or presence of E2. […] Once again, overexpression of ERRα repressed ERE-dependent transcription approximately 3-fold while having little if any effect on transcription of the control reporter (FIG. 15A).

With B1 the “Repression of ERE-dependent transcription by overexpression” value was “failed to repress”.
B2 was tested, and the “Repression of ERE-dependent transcription by overexpression” value was 2-3 fold.

Same assay, conditions: 1×10^−8 M E2, charcoal-stripped FBS

For `C[C@]12CC[C@@H]3c4ccc(O)cc4CC[C@H]3[C@@H]1CC[C@@H]2O` [E2, 17β-estradiol, reference compound], the “Additional stimulation of ERE-dependent transcription over level with 10^−10 M E2” value was 3 fold.

Same assay, conditions: 1×10^−8 M E2, charcoal-stripped FBS, 48 h

`C[C@]12CC[C@@H]3c4ccc(O)cc4CC[C@H]3[C@@H]1CC[C@@H]2O` [E2, 17β-estradiol, reference compound] was tested, and the “ERE-dependent transcription above activity without exogenous E2” value was “approximately 30 fold”.

Same assay, conditions: 1×10^−10 M E2, charcoal-stripped FBS, 48 h

For `C[C@]12CC[C@@H]3c4ccc(O)cc4CC[C@H]3[C@@H]1CC[C@@H]2O` [E2, 17β-estradiol, reference compound], the “Induction of transcriptional activity of ERE-containing reporter above level without exogenous E2” value was “approximately 10 fold”.

Each molecule was assayed against T1, ERRα1 (assay: Quantitative competition EMSA of unlabeled oligodeoxynucleotides against 32P-labeled reference consensus ERRE). Settings: relative to reference consensus ERRE; reciprocal of fold molar excess of competitor reducing shifted probe by 50%; COS whole cell extracts.
Type: binding
Experimental: Quantitative gel-mobility-shift assays: DNA binding was assayed in 20 μl of a buffer containing 10 mM HEPES (pH 7.5), 2.5 mM MgCl2, 50 μM EDTA, 1 mM dithiothreitol, 6% glycerol and 100 ng/μl of poly(dI-dC)·poly(dI-dC). Competition binding assays included unlabeled competitor oligonucleotide as well. […] Supershift assays contained 1 μl of a 1:10 dilution of whole antiserum. All components were mixed prior to the addition of protein. The final mixtures were incubated on ice for 15 minutes, followed by 25° C. for 15 minutes prior to separation by electrophoresis at 4° C. for 2 hours through a non-denaturing 4% polyacrylamide gel at 160 volts. Quantitation was performed with a PhosphorImager (Molecular Dynamics). The relative affinities of different sequences for binding by the protein were determined from the moles of unlabeled competitor oligonucleotide needed to reduce the fraction of probe shifted to 50%.
Knowing which genes are transcriptionally modulated by ERR may help to clarify ERR's potential role in breast cancer. To identify potential ERR-responsive genes, we examined the transcriptional regulatory regions of genes known to be involved in breast cancer for sequences capable of being bound by ERR. […] This sequence is a half-site of the consensus palindromic estrogen response element (ERE, 5′-AGGTCAnnnTGACCT (SEQ ID NO:32)) with a 3-base pair extension at the 5′ end. Searching sequence databases (the EPD Eukaryotic Promoter Database available on line from the Swiss Institute of Bioinformatics (17), and Genbank available on line from the National Center for Biotechnology Information, National Library of Medicine, National Institute of Health) facilitated the location of this consensus and similar non-consensus ERREs in human gene promoters, which were selected and tested experimentally for whether they contained authentic ERR-binding sites. Using quantitative competitive EMSAs performed similarly as described in FIG. 5 of Example 1, we identified many authentic ERR-binding sites that exist in the promoters of important genes implicated in breast cancer. These sequences and ERR's affinity for binding these sites relative to a reference consensus ERRE are shown in Table 3 (Location, distance of the ERRE sequence from the gene's transcriptional start site; Ref, reference of the gene's prognostic status or relevance to human breast cancer).

Point of comparison: “TCCCTTCCCCCTGCAAGGTCACGGTGGCCACCC (chemistry not given here) [pS2 site 1]”, “Relative binding affinity (RBA) of ERRα1 for DNA sequence” value 0.49. Against it:
- AAAATTGTTTTGTCTAGGTCATTTGCATTTTCA (chemistry not given here) [PgR site 1] — lower, 0.14
- AAAGGAACTTTCCCAAGGTCACAGAGCTGAGCT (chemistry not given here) [ErbB2] — higher, 1.01
- AGAACATCCCTTTTAAGGTCAGAACAAAGGTAT (chemistry not given here) [BRCA2] — lower, 0.08
- ATGTTTGGTATGAAAAGGTCACATTTTATATTC (chemistry not given here) [ERα] — lower, 0.11
- CAAATAATGGGCTGAAGGTGAACTATCTTTACT (chemistry not given here) [EGF] — lower, 0.14
- CAAATTTGAAACTAAAGGTCACAGGCTGCTTTA (chemistry not given here) [Pr1 site 2] — lower, 0.33
- CCTCAGAGTGGCTCAGGGTCAGAGAAGGTAGAG (chemistry not given here) [Pr1 site 3] — lower, 0.07
- CCTGAGACTCTACCAAGGTCAGAAATGCTGCAA (chemistry not given here) [aromatase] — lower, 0.17
- CTCCCATCTCACTTAAGGTCAAAGCCAGGGTCC (chemistry not given here) [elk1] — lower, 0.22
- CTGTCGGCAGGAACAAGGTCACCCCTTGGCGTT (chemistry not given here) [IGF2 site 2] — lower, 0.25
- GCGAGGAAAGCGTGAAGGTGATTTCAGTTAATT (chemistry not given here) [cyclin D1] — lower, 0.07
- GCTCCGGCTCGCTGAAGGTCACAGCCGAGGCGA (chemistry not given here) [IGF1R] — lower, 0.36
- GGGAGTTCAGGGTAAAGGTCACGGGGCCGGGGC (chemistry not given here) [hMDM2] — lower, 0.35
- GGTGCTCCCACTTAGAGGTCACGCGCGGCGTCG (chemistry not given here) [ERβ] — higher, 0.54
- GGTGGACGCTGCTGAAGGTGAGCGAGACCCCGG (chemistry not given here) [IGF2 site 3] — lower, 0.06
- GTAATTGCTGTACGAAGGTCAGAATCGCTACCT (chemistry not given here) [BRCA1] — lower, 0.17
- GTAGGACCTGGATTAAGGTCAGGTTGGAGGAGA (chemistry not given here) [pS2 site 2] — lower, 0.12
- TCCTAAGGACTGTCAAGGTCATCAAATACAAGG (chemistry not given here) [PgR site 3] — higher, 1.45
- TCCTTGCTAAACCCAAGGTCATAAATCTTTTCT (chemistry not given here) [PgR site 2] — higher, 0.91
- TCGAGAGCAGTGGCGATTTGTCAAGGTCACACAGTGAG (DNA, backbone not given here) [Reference ERRE, reference compound] — higher, 1.00
- TGGCATATTGGGTGAAGGTCAAGGGAGTGGCTT (chemistry not given here) [Cathepsin D] — the same, 0.49
- TGTCCATTTTCTTCTAGGTCAACCCCAATGGTA (chemistry not given here) [Pr1 site 1] — lower, 0.06
